Reference: patent US4518611A, “2-Furylbutyrolactone modulation of the immune system in mammals” (priority 1983, dated 1985)
Like-named read-outs stand apart in the source and are kept apart here.

Key:
[1] = tested on: L5178Y target cells; assay: MLTC assay of cytotoxic lymphocyte (CTL) activity, L5178Y target cells; type: cell-based, mouse, DBA/2; conditions: for CTL activity (in words): with or without stimulator cells, any E/T ratio
Source text: (§1) A mixed lymphocyte tumor culture (MLTC) immunoassay, used to determine the cytotoxic lymphocyte (CTL) activity employs lymphocytes from either immunized (sensitized) mice or DBA/2 tumor dormant state animals in various stages of the tumor dormant state (TDS). The assay employs L5178Y target cells labeled with ^51 Chromium and effector cells (sensitized lymphocytes) from the above-mentioned sources. Effector-target cell ratios will vary with different experimental conditions and may or may not include irradiated stimulator L5178Y cells. Results are expressed as % lysis of target cells based on ratio of cpm of test group over cpm of total release (maximum) both of which are corrected for spontaneous release of ^51 Cr. The assay can be performed as an 8 or 18 hour release assay.
Ten days later the resultant tumor nodule, about 1 cm in size, is surgically excised. If the excision was successful, no subcutaneous tumors develop at the site of implantation. […] These mice are considered to be in the tumor dormant state. […]
DBA/2 mice in the early stage of TDS, prior to challenge with viable L5178Y tumor cells, were used to measure the effect of Cpd. 2 on CTL activity. Cpd. 2, 0.1, 1.0, 10 or 100 μg/ml, or just buffer was added in 100 ul volumes to MLTC microculture wells containing washed spleen lymphocytes from DBA/2 mice, effector, and L5178Y target cells at varying ^E /T ratios. The MLTC reaction was performed in the presence or absence of irradiated L5178Y stimulator cells. […]

[2] = tested on: FLC-745 target cells; assay: MLTC assay of cytotoxic lymphocyte (CTL) activity, FLC-745 target cells; type: cell-based, mouse, DBA/2
Source text: as §1
An MLTC assay is performed to assess the CTL activity and tumor target cell specificity of Cpd. 1. Tumor dormant spleen cells and normal spleen cells of DBA/2 mice are used as effector cells. Irradiated L5178Y cells are used as stimulator cells. ^51 Cr-labeled L5178Y cells and FLC-745 cells are used as target cells. The effector/target ratios studied are 100:1, 30:1 and 10:1.

[3] = tested on: spleen lymphocytes
Source text: The effect of the compounds of this invention on the immune response to specific antigens involves immunization of mice with specific antigens such as bovine serum albumin (BSA) or keyhole limpet hemocyanin (KLH). Following immunization, it is possible to assess the cell-mediated or humoral (antibody) immune response to these antigens by various methods:
(1) Lymphocyte stimulation assays can be performed using varying concentrations of the specific antigens as mitogens in the lymphocyte stimulation microculture system described above. The only difference is that the incubation period is extended to five days instead of three as for the polyclonal mitogens.
Mice of the C57BL/6 strain are given i.p. injections of either 50, 100, 200 or 400 mg/kg of Cpd. 1 or buffer for ten days (days 1-10). An antigen, keyhole limpet hemocyanin (KLH), is administered intraperitoneally with Freund's Complete Adjuvant (FCA) on days 1, 7, and 13. Blood samples are taken for assay of the antibody response on days 0, 5, 12, and 17. Spleens are removed, lymphocytes isolated and a lymphocyte stimulation assay with PHA, Con-A or KLH antigen as the mitogens is performed on day 17 of the experiment.

[4] = tested on: C57BL/6 mice; conditions: for Number Dead on Day 3: ten mice per dose
Procedure: Single dose LD50 in C57BL/6 mice for Cpd. 1 is determined following the method of Spearman and Karber described in Basic Exercises in Immunochemistry, 1979. Briefly, 0.5 ml of each dose is given to each of ten mice. The survivors are counted after 3 days and the LD50 is calculated using the following formula: [formula] where D=fold diferences between doses, R=total number dead, and N=total number of animals tested.

[5] = E + D, E/T 10:1, TDS effectors, no stimulators
[6] = N + S + D, E/T 30:1, normal spleen cells + stimulators
[7] = N + S + D, E/T 100:1, normal spleen cells + stimulators

Cc1ccc(C2(O)C(=O)OC3C(O)COC32O)o1.Cc1ccc(C2(O)C(=O)OC3C(O)COC32O)o1.O=C1CCC(=O)O1 (stereo not drawn) [Cpd. 1, 2-furylbutyrolactone:succinic anhydride]
% Lysis ([1]; 0.001 μg/ml, E/T 10:1, TDS, without stimulator cells): 3.9%
% Lysis ([1]; 0.01 μg/ml, E/T 10:1, TDS, without stimulator cells): 3.5%
% Lysis ([1]; 0.01 μg/ml, E/T 100:1, TDS, without stimulator cells): 26.0%
% Lysis ([1]; 0.1 μg/ml, E/T 10:1, TDS, without stimulator cells): 3.5%
% Lysis ([1]; 0.1 μg/ml, E/T 30:1, TDS, with stimulator cells): 51.0%
% Lysis ([1]; 0.1 μg/ml, E/T 100:1, TDS, with stimulator cells): 79.0%
% Lysis ([1]; 1.0 μg/ml, E/T 10:1, TDS, without stimulator cells): 4.6%
% Lysis ([1]; 1.0 μg/ml, E/T 30:1, TDS, with stimulator cells): 46.0%
% Lysis ([1]; 1.0 μg/ml, E/T 30:1, TDS, without stimulator cells): 20.0%
% Lysis ([1]; 10 μg/ml, E/T 6.25:1, TDS, without stimulator cells): .7%
% Lysis ([1]; 10 μg/ml, E/T 10:1, TDS, without stimulator cells): 4.6%
% Lysis ([1]; 10 μg/ml, E/T 12.5:1, TDS, without stimulator cells): 6.9%
% Lysis ([1]; 10 μg/ml, E/T 25:1, TDS, with stimulator cells): 72.0%
% Lysis ([1]; 10 μg/ml, E/T 25:1, TDS, without stimulator cells): 8.1%
% Lysis ([1]; 10 μg/ml, E/T 30:1, TDS, with stimulator cells): 42.0%
% Lysis ([1]; 100 μg/ml, E/T 6.25:1, TDS, without stimulator cells): 6.1%
% Lysis ([1]; 100 μg/ml, E/T 10:1, TDS, without stimulator cells): 8.6%
% Lysis ([1]; 100 μg/ml, E/T 100:1, TDS, without stimulator cells): 42.0%
% Lysis [1, 5]: 9.0%
enhancement of CTL activity (in words) ([1]; L5178Y target, TDS effectors with stimulator cells): significant specific enhancement of CTL activity of effector cells in the presence of stimulator cells
% Lysis [1, 6]: -9.7%
% Lysis [1, 7]: -9.5%
CTL activity (in words) ([1]; TDS 10 days after challenge): significant increase in CTL activity
% Lysis [2, 5]: 0.7%
% Lysis ([2]; E + D, E/T 30:1, TDS effectors, no stimulators): 4.6%
% Lysis ([2]; E + D, E/T 100:1, TDS effectors, no stimulators): 6.6%
% Lysis ([2]; E + S + D, E/T 10:1, TDS effectors + stimulators): 0.5%
% Lysis ([2]; E + S + D, E/T 30:1, TDS effectors + stimulators): 3.6%
enhancement of CTL activity (in words) ([2]; FLC-745 target, TDS effectors with stimulator cells): This effect is not observed in the FLC-745 target control system
% Lysis ([2]; N + D, E/T 10:1, normal spleen cells, no stimulators): -3.5%
% Lysis ([2]; N + D, E/T 30:1, normal spleen cells, no stimulators): 0.9%
% Lysis ([2]; N + S + D, E/T 10:1, normal spleen cells + stimulators): -1.1%
% Lysis [2, 6]: -0.8%
% Lysis [2, 7]: 5.8%
Lymphocyte Stimulation Index, Con-A ([3]; 50 mg/kg, Day 17): 19.0
Lymphocyte Stimulation Index ([3]; 50 mg/kg, KLH 0.025 μg/well, Day 17): 0.0386
Lymphocyte Stimulation Index ([3]; 50 mg/kg, KLH 0.05 μg/well, Day 17): 0.357
Lymphocyte Stimulation Index ([3]; 50 mg/kg, KLH 0.5 μg/well, Day 17): 0.415
Lymphocyte Stimulation Index ([3]; 50 mg/kg, KLH 1.0 μg/well, Day 17): 0.536
Lymphocyte Stimulation Index ([3]; 100 mg/kg, KLH 0.025 μg/well, Day 17): 0.401
Lymphocyte Stimulation Index ([3]; 100 mg/kg, KLH 0.05 μg/well, Day 17): 0.526
Lymphocyte Stimulation Index ([3]; 100 mg/kg, KLH 0.5 μg/well, Day 17): 0.734
Lymphocyte Stimulation Index ([3]; 100 mg/kg, KLH 1.0 μg/well, Day 17): 0.898
lymphocyte DNA synthesis (in words) ([3]; 200 mg/kg, Con-A or KLH, day 17): statistically significant increase in lymphocyte DNA synthesis
Lymphocyte Stimulation Index ([3]; 200 mg/kg, KLH 0.025 μg/well, Day 17): 3.91
Lymphocyte Stimulation Index ([3]; 200 mg/kg, KLH 0.05 μg/well, Day 17): 1.02
Lymphocyte Stimulation Index ([3]; 200 mg/kg, KLH 0.5 μg/well, Day 17): 4.26
Lymphocyte Stimulation Index ([3]; 200 mg/kg, KLH 1.0 μg/well, Day 17): 7.45
Lymphocyte Stimulation Index, Control (no mitogen) ([3]; 400 mg/kg, Day 17): 0.840
Lymphocyte Stimulation Index ([3]; 400 mg/kg, KLH 0.025 μg/well, Day 17): 1.03
Lymphocyte Stimulation Index ([3]; 400 mg/kg, KLH 0.05 μg/well, Day 17): 0.667
Lymphocyte Stimulation Index ([3]; 400 mg/kg, KLH 0.5 μg/well, Day 17): 0.232
Lymphocyte Stimulation Index ([3]; 400 mg/kg, KLH 1.0 μg/well, Day 17): 0.589
Number Dead on Day 3 ([4]; 1,000 mg/kg single i.p.): 0
Number Dead on Day 3 ([4]; 2,000 mg/kg single i.p.): 0
Number Dead on Day 3 ([4]; 4,000 mg/kg single i.p.): 7
Number Dead on Day 3 ([4]; 8,000 mg/kg single i.p.): 10
Number Dead on Day 3 ([4]; 16,000 mg/kg single i.p.): 10
LD50 ([4]; purified Cpd. 1, single i.p. injection, 4320 min): > 3000 mg/kg

2-furylbutyrolactone:succinimide [Cpd. 2]
% Lysis ([1]; 0.1 μg/ml, E/T 12.5:1, pre-challenge TDS, with stimulator cells): 47.5%
% Lysis ([1]; 0.1 μg/ml, E/T 12.5:1, pre-challenge TDS, without stimulator cells): 16.5%
% Lysis ([1]; 0.1 μg/ml, E/T 25:1, pre-challenge TDS, with stimulator cells): 64.0%
% Lysis ([1]; 0.1 μg/ml, E/T 25:1, pre-challenge TDS, without stimulator cells): 29.5%
% Lysis ([1]; 0.1 μg/ml, E/T 50:1, pre-challenge TDS, with stimulator cells): 69.5%
% Lysis ([1]; 0.1 μg/ml, E/T 50:1, pre-challenge TDS, without stimulator cells): 43.5%
% Lysis ([1]; 0.1 μg/ml, E/T 100:1, pre-challenge TDS, with stimulator cells): 74.5%
% Lysis ([1]; 0.1 μg/ml, E/T 100:1, pre-challenge TDS, without stimulator cells): 48.0%
% Lysis ([1]; 1 μg/ml, E/T 12.5:1, pre-challenge TDS, with stimulator cells): 58.0%
% Lysis ([1]; 1 μg/ml, E/T 25:1, pre-challenge TDS, with stimulator cells): 69.5%
% Lysis ([1]; 1 μg/ml, E/T 50:1, pre-challenge TDS, with stimulator cells): 72.5%
% Lysis ([1]; 1 μg/ml, E/T 100:1, pre-challenge TDS, with stimulator cells): 75.5%
% Lysis ([1]; 10 μg/ml, E/T 12.5:1, pre-challenge TDS, with stimulator cells): 58.5%
% Lysis ([1]; 10 μg/ml, E/T 12.5:1, pre-challenge TDS, without stimulator cells): 26.5%
% Lysis ([1]; 10 μg/ml, E/T 25:1, pre-challenge TDS, with stimulator cells): 72.5%
% Lysis ([1]; 10 μg/ml, E/T 25:1, pre-challenge TDS, without stimulator cells): 40.0%
% Lysis ([1]; 10 μg/ml, E/T 50:1, pre-challenge TDS, with stimulator cells): 72.5%
% Lysis ([1]; 10 μg/ml, E/T 50:1, pre-challenge TDS, without stimulator cells): 56.5%
% Lysis ([1]; 10 μg/ml, E/T 100:1, pre-challenge TDS, with stimulator cells): 73.5%
% Lysis ([1]; 10 μg/ml, E/T 100:1, pre-challenge TDS, without stimulator cells): 61.5%
% Lysis ([1]; 100 μg/ml, E/T 12.5:1, pre-challenge TDS, with stimulator cells): 47.0%
% Lysis ([1]; 100 μg/ml, E/T 25:1, pre-challenge TDS, with stimulator cells): 65.0%
% Lysis ([1]; 100 μg/ml, E/T 50:1, pre-challenge TDS, with stimulator cells): 73.5%
% Lysis ([1]; 100 μg/ml, E/T 100:1, pre-challenge TDS, with stimulator cells): 78.5%
CTL activity (in words) ([1]; pre-challenge TDS): increase in CTL activity
